Results reported in EP4789665A1, “TREATMENT OF HIS HYPORESPONDERS” (NewAmsterdam Pharma B.V., priority 2021, dated 2023).
“And” between values parts separate entries of the source, which are not always exact repeats. Equal values may be shown once.

Target: T1, CETP (Homo sapiens, UniProt P11597)
T1 construct: endogenous in cells; host or cells: trial patients (in vivo, circulating plasma CETP)
T1 sequence (P11597 18-493): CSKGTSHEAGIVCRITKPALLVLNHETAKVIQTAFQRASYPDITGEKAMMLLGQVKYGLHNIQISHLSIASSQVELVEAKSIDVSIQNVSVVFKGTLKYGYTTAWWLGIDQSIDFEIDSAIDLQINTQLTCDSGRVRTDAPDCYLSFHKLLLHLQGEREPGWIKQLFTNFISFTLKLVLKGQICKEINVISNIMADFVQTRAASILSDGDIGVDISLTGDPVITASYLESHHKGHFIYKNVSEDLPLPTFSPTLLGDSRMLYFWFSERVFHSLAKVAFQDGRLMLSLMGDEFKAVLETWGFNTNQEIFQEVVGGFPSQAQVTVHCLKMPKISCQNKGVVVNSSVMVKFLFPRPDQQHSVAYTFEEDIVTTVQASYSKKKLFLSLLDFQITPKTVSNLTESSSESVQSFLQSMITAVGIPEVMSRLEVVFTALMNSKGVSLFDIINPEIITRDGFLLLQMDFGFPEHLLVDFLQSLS
Test: Placebo-controlled, double-blind, randomized phase 2 study of obicetrapib as adjunct to high-intensity statin therapy: lipoprotein lipid and apolipoprotein responses
Assay type: in vivo
Settings: for LDL-C by PUC, % Change from Baseline LS mean (95% CI) / LDL-C reduced from baseline (Friedewald formula) / Apo B reduced by / Lp(a) reduced by / non-HDL-C reduced by: 8 weeks; for LDL-C by PUC, % Change from Baseline LS mean (95% CI) / Apo A1 Week 8 change, LS Mean ± SE / Apo B Week 8 change, LS Mean ± SE / HDL-C Week 8 change, LS Mean ± SE / LDL-C (Martin-Hopkins) Week 8 change, LS Mean ± SE / Lp(a) Week 8 change, LS Mean ± SE / Non-HDL-C Week 8 change, LS Mean ± SE / TG Week 8 change, LS Mean ± SE / VLDL-C Week 8 change, LS Mean ± SE / LDL-C (PUC) Week 8 change, LS Mean ± SE / LDL-C reduced from baseline (Friedewald formula) / Apo B reduced by / Lp(a) reduced by / non-HDL-C reduced by: adjunct to high-intensity statin; for LDL-C by PUC, % Change from Baseline LS mean (95% CI): Table 3; for Apo A1 Week 8 change, Median (min, max) / LDL-C (Martin-Hopkins) Week 8 change, Median (min, max) / Lp(a) Week 8 change, Median (min, max) / TG Week 8 change, Median (min, max) / VLDL-C Week 8 change, Median (min, max): adjunct to high-intensity statin therapy; for Apo A1 Week 8 change, LS Mean ± SE / Apo B Week 8 change, LS Mean ± SE / HDL-C Week 8 change, LS Mean ± SE / LDL-C (Martin-Hopkins) Week 8 change, LS Mean ± SE / Lp(a) Week 8 change, LS Mean ± SE / Non-HDL-C Week 8 change, LS Mean ± SE / TG Week 8 change, LS Mean ± SE / VLDL-C Week 8 change, LS Mean ± SE / LDL-C by Friedewald, % Change from Baseline LS mean: MMRM; for LDL-C (PUC) Week 8 change, LS Mean ± SE: analysis of covariance model, Table 9; for ApoB, % change from Baseline Median / HDL-C, % change from Baseline Median / LDL-C by Friedewald, % Change from Baseline (median) / LDL-C by PUC, % Change from Baseline (median) / Non-HDL-C, % Change from Baseline (median): week 8, adjunct to high-intensity statin therapy; for LDL-C by Friedewald, % Change from Baseline LS mean: week 8, adjunct to high-intensity statin; for LDL-C reduced from baseline (Friedewald formula): primary analysis; for LDL-C reduced from baseline (Friedewald formula) / Apo B reduced by / Lp(a) reduced by / non-HDL-C reduced by: stated as reduction
Experimental: To evaluate the efficacy, safety, and tolerability of obicetrapib as an adjunct to high-intensity statin therapy, a placebo-controlled, double-blind, randomized, phase 2 study was carried out.
The study consisted of three arms: 1) 5 mg obicetrapib as adjunctive therapy; 2) 10 mg obicetrapib as adjunctive therapy and 3) a placebo arm. The second objective was to evaluate other lipoprotein lipid and apolipoprotein responses, safety and tolerability profiles, and plasma concentrations of obicetrapib during treatment and for several weeks of follow-up. Lastly, this study aimed to determine if different quantitative measures of LDL-C levels produced differences in the treatment effects of CETP inhibition.
This randomised, double-blind, placebo-controlled, parallel-group phase 2 trial was conducted in male and female patients (18-75 years), treated with high-intensity statin therapy, with LDL-C levels >70 mg/DL and TG levels < 400 mg/dL. Key exclusion criteria were patients with BMI > 40 kg/m; Significant cardiovascular disease; HbA1c > 10%; Uncontrolled hypertension; Active muscle disease; GFR < 60 ml/min; Hepatic dysfunction; Anemia; History of malignancy; Alcohol abuse; Treatment with investigational product; Treatment with PCSK9 inhibitor; Clinically significant condition; and/or prior exposure to a CETP inhibitor. Patients were recruited at 19 sites in the United States. The trial was approved by Independent Ethics Committees, and each patient provided written informed consent. The trial was conducted in accordance with the principles of the Declaration of Helsinki and Good Clinical Practice Guidelines and the protocol was registered on ClinicalTrials.gov (NCT04753606).
The screening period for this study took up to 2-weeks. Afterwards patients were randomized to placebo, 5 mg obicetrapib or 10 mg obicetrapib for an 8-week treatment period. After the treatment period, patients continued for a 4-week safety follow-up and a 15-week PK follow-up.
Patients were randomly assigned to receive one of the three treatments investigative treatments. All treatments were to be taken once daily with food for 8 weeks. Safety was assessed throughout the trial by monitoring adverse events and concomitant medication use, 12-lead electrocardiograms (ECGs), vital signs, laboratory safety assessments and physical examinations. Additional assessments included salivary cortisol, plasma aldosterone, high-sensitivity C-reactive protein (hsCRP) and endothelin 1.
Efficacy assessments included fasted lipid profiles including total cholesterol (TC), HDL-C, LDL-C, triglycerides, apolipoprotein B (ApoB), and derived parameters.
Total cholesterol and triglycerides were measured by homogenous enzymatic assay using a Modular analyser (cholesterol oxidase peroxidase-peroxidase aminophenazone phenol [CHOP-PAP]) method and a glycerol phosphate oxidase [GPO-PAP] method, respectively. Apolipoprotein B was measured by immunoturbidimetry using reagents from Rolf Greiner Biochemica (Germany) and N apoprotein standard serum from Siemens (Germany). LDL particle size was determined by gradient gel electrophoresis. HDL fraction was separated by a combined ultracentrifugation-precipitation method (β-quantification). HDL-2 and HDL-3 fractions were then separated by further ultracentrifugation. Total-cholesterol in HDL, HDL 2 and HLD-3 fractions, free cholesterol in HDL fraction, triglycerides in HDL fraction and phospholipids in plasma and HDL-fraction were measured using enzymatic methods and reagents from Diasys Diagnostics (Germany). The measurements were performed on an Olympus AU600 automatic analyzer and were calibrated using secondary standards from Roche Diagnostics (total-cholesterol, triglycerides) and Diasys Diagnostics (free cholesterol, phospholipids), respectively. Esterified cholesterol was calculated as the difference between total-cholesterol and free cholesterol.
The primary outcome measure was LDL-C (percent change). […]

[1] = 5 mg once daily for 8 weeks as adjunct to high-intensity statin therapy
[2] = 5 mg once daily, listed as obicetrapib
[3] = 10 mg once daily for 8 weeks as adjunct to high-intensity statin therapy
[4] = 10 mg once daily, listed as obicetrapib

CCOC(=O)N1c2ccc(C(F)(F)F)cc2[C@@H](N(Cc2cc(C(F)(F)F)cc(C(F)(F)F)c2)c2ncc(OCCCC(=O)O)cn2)C[C@H]1CC [Obicetrapib, (2R,4S)-4-{[3,5-bis(trifluoromethyl)benzyl]-[5-(3-carboxypropoxy)pyrimidin-2-yl]amino}-2-ethyl-6-trifluoromethyl-3,4-dihydro-2H-quinoline-1-carboxylic acid ethyl ester]
ApoB, Change from Baseline Median mg/dL [1]: -22.0 mg/dL | ApoB, EoT Median [1]: 65.0 mg/dL | HDL-C, Change from Baseline Median mg/dL [1]: 60.0 mg/dL | HDL-C, EoT Median [1]: 107.0 mg/dL | LDL-C by Friedewald, EoT Median [1]: 51.0 mg/dL | LDL-C by PUC, EoT Median [1]: 53.0 mg/dL | Non-HDL-C, EoT Median [1]: 71 mg/dL | LDL-C by PUC, % Change from Baseline LS mean (95% CI) (5 mg once daily): -37.98% | Apo A1 Week 8 change, Median (min, max) (5 mg once daily): 44.6% and 44.6 (-10.0, 87.1) % | LDL-C (Martin-Hopkins) Week 8 change, Median (min, max) (5 mg once daily): -42.5 (-80.8, 74.4) % | Lp(a) Week 8 change, Median (min, max) (5 mg once daily): -33.8 (-84.6, 93.8) % | TG Week 8 change, Median (min, max) (5 mg once daily): -11.0 (-53.3, 86.7) % | VLDL-C Week 8 change, Median (min, max) (5 mg once daily): -11.5 (-53.5, 83.3) % | TG Week 8 change, Median (min, max) [2]: -11.0% | VLDL-C Week 8 change, Median (min, max) [2]: -11.5% | Apo A1 Week 8 change, LS Mean ± SE (5 mg once daily): 41.1 ± 3.04% | Apo B Week 8 change, LS Mean ± SE (5 mg once daily): -22.4 ± 2.58% | HDL-C Week 8 change, LS Mean ± SE (5 mg once daily): 122 ± 6.59% | LDL-C (Martin-Hopkins) Week 8 change, LS Mean ± SE (5 mg once daily): -39.6 ± 3.68% | Lp(a) Week 8 change, LS Mean ± SE (5 mg once daily): -30.9 ± 4.43% | Non-HDL-C Week 8 change, LS Mean ± SE (5 mg once daily): -34.4 ± 3.18% | TG Week 8 change, LS Mean ± SE (5 mg once daily): -6.63 ± 5.32% | VLDL-C Week 8 change, LS Mean ± SE (5 mg once daily): -6.02 ± 5.24% | LDL-C (PUC) Week 8 change, LS Mean ± SE (5 mg once daily): -35.7 ± 3.31% | ApoB, % change from Baseline Median (5 mg once daily): -24.40% and -24.4 (-58.5, 47.4) % | HDL-C, % change from Baseline Median (5 mg once daily): 135% and 135.4% and 135 (-26.4, 213) % | LDL-C by Friedewald, % Change from Baseline (median) (5 mg once daily): -42.90% and -42.9 (-81.9, 72.4) % | LDL-C by PUC, % Change from Baseline (median) (5 mg once daily): -41.5% and -41.45% and -41.5 (-71.2, 62.3) % | Non-HDL-C, % Change from Baseline (median) (5 mg once daily): -38.9% and -38.9 (-65.6, 66.3) % | LDL-C by PUC, % Change from Baseline (median) [2]: -41.5% | LDL-C by Friedewald, % Change from Baseline LS mean (5 mg once daily): -37.94% and -38.0 ± 3.49% | LDL-C reduced from baseline (Friedewald formula) (5 mg): 42.9% | Apo B reduced by (5 mg): 24.4% | Lp(a) reduced by (5 mg): 33.8% | non-HDL-C reduced by (5 mg): 38.9% | ApoB, Change from Baseline Median mg/dL [3]: -24.5 mg/dL | ApoB, EoT Median [3]: 58.5 mg/dL | HDL-C, Change from Baseline Median mg/dL [3]: 72.0 mg/dL | HDL-C, EoT Median [3]: 117.5 mg/dL | LDL-C by Friedewald, EoT Median [3]: 52.0 mg/dL | LDL-C by PUC, EoT Median [3]: 49.5 mg/dL | Non-HDL-C, EoT Median [3]: 69 mg/dL | LDL-C by PUC, % Change from Baseline LS mean (95% CI) (10 mg once daily): -44.15% | Apo A1 Week 8 change, Median (min, max) (10 mg once daily): 47.8% and 47.8 (13.5, 106) % | LDL-C (Martin-Hopkins) Week 8 change, Median (min, max) (10 mg once daily): -49.2 (-77.0, 28.1) % | Lp(a) Week 8 change, Median (min, max) (10 mg once daily): -56.5 (-85.7, 18.3) % | TG Week 8 change, Median (min, max) (10 mg once daily): -7.85 (-63.7, 129) % | VLDL-C Week 8 change, Median (min, max) (10 mg once daily): -7.90 (-44.4, 125) % | LDL-C (Martin-Hopkins) Week 8 change, Median (min, max) [4]: -49.2% | Apo A1 Week 8 change, LS Mean ± SE (10 mg once daily): 52.3 ± 3.04% | Apo B Week 8 change, LS Mean ± SE (10 mg once daily): -28.1 ± 2.56% | HDL-C Week 8 change, LS Mean ± SE (10 mg once daily): 157 ± 6.54% | LDL-C (Martin-Hopkins) Week 8 change, LS Mean ± SE (10 mg once daily): -46.9 ± 3.65% | Lp(a) Week 8 change, LS Mean ± SE (10 mg once daily): -42.0 ± 4.33% | Non-HDL-C Week 8 change, LS Mean ± SE (10 mg once daily): -39.9 ± 3.15% | TG Week 8 change, LS Mean ± SE (10 mg once daily): 2.45 ± 5.27% | VLDL-C Week 8 change, LS Mean ± SE (10 mg once daily): 3.08 ± 5.19% | LDL-C (PUC) Week 8 change, LS Mean ± SE (10 mg once daily): -46.8 ± 3.23% | ApoB, % change from Baseline Median (10 mg once daily): -29.75% and -29.8 (-58.4, 13.0) % | HDL-C, % change from Baseline Median (10 mg once daily): 165% and 165 (55.1, 286) % | LDL-C by Friedewald, % Change from Baseline (median) (10 mg once daily): -45.65% and -45.7 (-78.0, 26.2) % | LDL-C by PUC, % Change from Baseline (median) (10 mg once daily): -50.8% and -50.75% and -50.8 (-76.9, 15.6) % | Non-HDL-C, % Change from Baseline (median) (10 mg once daily): -44.4% and -44.4 (-70.2, 22.5) % | LDL-C by PUC, % Change from Baseline (median) [4]: -50.8% | LDL-C by Friedewald, % Change from Baseline LS mean (10 mg once daily): -44.15% and -44.2 ± 3.46% | LDL-C reduced from baseline (Friedewald formula) (10 mg): 45.7% | Apo B reduced by (10 mg): 29.8% | Lp(a) reduced by (10 mg): 56.5% | non-HDL-C reduced by (10 mg): 44.4% | median Apo B reductions from baseline (10 mg, post-hoc analysis, individuals with baseline Apo B >100 mg/dL): 39%
